Assay results reported in PMC3716919, “Oxidative stress disruption of receptor-mediated calcium signaling mechanisms” (Journal of Biomedical Science, 2013).
Where “and” joins values, the source holds several entries; their conditions need not be identical. Equal entries are not always repeated. Entries after “also recorded” stand apart in the source; their conditions may differ. Values belong to the compound of their own block, whether it stands above or below them.

Columns and labels:
[1] = test system: store-operated calcium entry (SOCE) channels; test: Store-operated calcium entry (SOCE) in CHO-M3 cells (fura-2 imaging); format: cell-based, Chinese hamster; details: for initial rate of rise of [Ca2+]i in response to reintroduction of calcium: control cells; for acute effect of direct SOCE channel inhibitors on SOCE: added after activation of SOCE by 10 μM carbamylcholine, honokiol 30 μM in insert, unpublished observations
CHO-M3 cells [2] = test: Thapsigargin-induced release of calcium from the ER in CHO-M3 cells (fura-2 imaging)
[3] = biological target: T1, human M3 muscarinic receptor (Homo sapiens, UniProt P20309); format: binding
T1 construct: CHO cells expressing the human M3 muscarinic acetylcholine receptor open reading frame; host or cells: CHO cells, stably transfected (CHO-M3)
T1 sequence (P20309 whole entry): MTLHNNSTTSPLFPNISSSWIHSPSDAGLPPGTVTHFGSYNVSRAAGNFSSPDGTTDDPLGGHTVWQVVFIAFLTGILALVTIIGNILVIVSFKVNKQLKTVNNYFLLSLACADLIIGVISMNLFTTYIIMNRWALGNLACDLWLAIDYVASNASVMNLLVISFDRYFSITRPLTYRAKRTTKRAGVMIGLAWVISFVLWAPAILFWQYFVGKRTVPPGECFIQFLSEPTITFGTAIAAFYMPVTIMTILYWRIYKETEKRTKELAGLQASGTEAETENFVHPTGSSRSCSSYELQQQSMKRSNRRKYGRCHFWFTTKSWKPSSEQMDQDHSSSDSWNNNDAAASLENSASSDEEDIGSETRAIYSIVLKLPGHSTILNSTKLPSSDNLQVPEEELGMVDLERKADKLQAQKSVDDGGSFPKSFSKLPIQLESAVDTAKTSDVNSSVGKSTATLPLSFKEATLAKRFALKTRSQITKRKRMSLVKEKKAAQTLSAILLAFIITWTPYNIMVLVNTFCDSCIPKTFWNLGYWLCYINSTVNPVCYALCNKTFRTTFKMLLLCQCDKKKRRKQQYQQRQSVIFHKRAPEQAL
Method: (§1) In some experiments, the cells were exposed to 2 mM tBHP for 90 min before harvesting. Binding was determined by filtering the suspension through glass fiber filters (1 μm pore size) and measuring the amount of radioactivity bound to membranes trapped on the filters by liquid scintillation counting.
(§2) Binding parameters were averaged from 3 independent experiments. […] 5′-Guanylyl-imidodiphosphate (Gpp(NH)p) was included in some experiments to assess receptor – G protein interactions.

CHO-M3 cells [4] = test: Resting cytosolic calcium concentration in CHO-M3 cells (fura-2 imaging); format: cell-based, Chinese hamster
[5] = biological target: T2, human M3 muscarinic acetylcholine receptor (Homo sapiens, UniProt P20309); format: cell-based
T2 construct: CHO cells expressing the human M3 muscarinic acetylcholine receptor open reading frame; host or cells: CHO cells, stably transfected (CHO-M3)
T2 sequence (P20309 whole entry): as above

CHO-M3 cells [6] = test: Reactive oxygen species, DCFDA fluorescence; format: cell-based, Chinese hamster; details: 90 min exposure
Method: The concentration of reactive oxygen species (ROS) was determined by the […] of 2′,7′-dichlorodihydrofluorescein (DCFDA; Sigma). CHO-M3 cells were plated on a 96 well plate with opaque walls at a density of 30,000 cells/well, and incubated overnight in phenol red-free media. Following a 90 min exposure to tBHP, the media was removed and the cells were washed with BSS. DCFDA (100 μl of a 40 μM solution) was added, and the plate was incubated for 1 h before measuring fluorescence at 485 nm excitation/520 nm emission using a FLUOstar plate reader.

[7] = biological target: T3, human M2 muscarinic receptor (Homo sapiens, UniProt P08172); test: [3H]N-methylscopolamine dissociation from M2 receptors expressed in CHO cells; format: binding
T3 sequence (P08172 1-466): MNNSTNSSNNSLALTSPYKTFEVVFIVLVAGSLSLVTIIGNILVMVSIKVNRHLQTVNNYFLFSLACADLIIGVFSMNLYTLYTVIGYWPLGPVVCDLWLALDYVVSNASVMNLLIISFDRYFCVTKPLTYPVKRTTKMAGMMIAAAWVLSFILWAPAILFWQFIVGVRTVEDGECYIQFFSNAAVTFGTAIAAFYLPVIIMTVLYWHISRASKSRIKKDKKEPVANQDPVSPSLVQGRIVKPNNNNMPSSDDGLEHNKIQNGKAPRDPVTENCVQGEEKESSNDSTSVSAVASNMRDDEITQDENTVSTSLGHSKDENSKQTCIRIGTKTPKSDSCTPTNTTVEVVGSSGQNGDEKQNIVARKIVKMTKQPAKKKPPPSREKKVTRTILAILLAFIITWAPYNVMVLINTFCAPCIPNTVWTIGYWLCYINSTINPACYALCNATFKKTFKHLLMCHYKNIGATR
Method: as §1, §2
Muscarinic receptors can also be regulated by ligands that bind to an allosteric site. […] Accordingly, we measured ligand dissociation from muscarinic receptors after exposure to 2 mM tBHP for 90 min (Figure 9).

CHO-M3 cells [8] = test: Endoplasmic reticulum luminal calcium (Mag-Fura 2, saponin-permeabilized cells); format: cell-based, Chinese hamster
Method: The concentration of Ca^2+ in the lumen of the ER ([Ca^2+]L) was measured using the low-affinity calcium indicator, Mag-Fura 2 (Molecular Probes). […] The media was removed and the cells rinsed with BSS and then incubated with Mag-Fura 2 (50 μM) for 60 minutes at room temperature. Mag-Fura 2 was removed and the cells incubated for an additional 30 minutes. Prior to imaging, the BSS was removed and replaced with Ca^2+- and Mg^2+-free BSS. During imaging, the cells were permeabilized by exposure to 0.005% saponin for 70 seconds to release cytosolic calcium. This caused a rapid decrease in total fluorescence intensity following excitation at both 340 and 380 nm, but elimination of the pervasive cytosolic signal allowed detection of ER lumen calcium levels 30 seconds after saponin addition. Following stabilization of the signal (≈100 sec), R340/380 was averaged for 10 seconds in approximately 20 cells on each plate.

[9] = 90 min exposure, extracellular calcium present

Compound: C/C=C(/C)C(=O)O[C@H]1C(C)=C2[C@H]([C@@H]1OC(=O)CCCCCCC)[C@@](C)(OC(C)=O)C[C@H](OC(=O)CCC)[C@@]1(O)[C@H]2OC(=O)[C@@]1(C)O [thapsigargin]
initial rate of rise of [Ca2+]i in response to reintroduction of calcium ([1]; after 1 μM thapsigargin in calcium-free medium): 40.0 ± 5.1 nM/s | initial rate of rise of [Ca2+]i in response to thapsigargin (CHO-M3 cells [2]; control cells, 1 μM thapsigargin, extracellular calcium present): 4.3 ± 0.6 nM/s

Compound: Nc1nc2c(ncn2[C@@H]2O[C@H](COP(=O)(O)OP(=O)(O)NP(=O)(O)O)[C@@H](O)[C@H]2O)c(=O)[nH]1 [Gpp(NH)p, 5′-Guanylyl-imidodiphosphate]
effect on carbamylcholine inhibition curves of [3H]MS binding [3]: shifted the inhibition curves to the right

Compound: CC(C)(C)OO [tBHP, tert-butyl hydroperoxide]
resting [Ca2+]i after exposure (control 26 nM) (CHO-M3 cells [4]; 20 mM tBHP, 90 min, 2 mM extracellular calcium): 127 nM | resting [Ca2+]i after exposure (control 26 nM) (CHO-M3 cells [4]; 0.5-10 mM tBHP, 90 min (abstract)): up to 127 nM | resting calcium concentration after exposure (CHO-M3 cells [4]; 90 min exposure, Figure 3a): > 100 nM | acute effect on calcium entry after activation of SOCE ([1]; 20 mM added at 120 sec after 10 μM carbamylcholine): did not block calcium entry | depression of SOCE after thapsigargin ([1]; 90 min exposure, 0.5-5 mM, dose-dependent, calcium reintroduced (2 mM)): 30-70% | effect on ability of thapsigargin-induced calcium release to evoke SOCE ([1]; 90 min exposure, 0.5-20 mM, extracellular calcium present): severely compromised | effect on ability to maintain the higher level of [Ca2+]i (plateau, SOCE) [1, 9]: compromised in a concentration-dependent manner | inhibition of the initial thapsigargin-stimulated release of calcium from the ER (CHO-M3 cells [2]; 90 min exposure, all concentrations 0.5 to 5 mM, calcium-free medium): 50% | effect on the response to M3 receptor activation ([5]; 90 min exposure, all concentrations at or above 1 mM, no extracellular calcium): depressed | effect on the initial calcium response to carbamylcholine [5, 9]: not significantly affected | threshold concentration for ROS production (CHO-M3 cells [6]): 5 mM | increase in ROS (CHO-M3 cells [6]; at 10 mM tBHP): up to 400% | effect on ability of carbamylcholine to inhibit [3H]MS binding [3]: not affected | effect on atropine-induced dissociation of M3 receptor-[3H]MS complex and on gallamine slowing of dissociation [3]: had no effect | effect on [3H]MS binding affinity ([3]; 2 mM for 90 min): not affected | effect on allosteric receptor actions ([7]; 2 mM for 90 min): not affected | decrease of [Ca2+]L (CHO-M3 cells [8]; 90 min exposure, 0.5-10 mM (abstract)): 55% | [Ca2+]L, % of control levels (CHO-M3 cells [8]; pretreatment 1-20 mM for 90 min): ≈ 55 % of control

Compound: C=CCc1ccc(O)c(-c2ccc(O)c(CC=C)c2)c1 [honokiol]
acute effect of direct SOCE channel inhibitors on SOCE [1]: immediate reductions in SOCE; also recorded: immediate reduction of SOCE

Compound: C[N+](C)(C)CCOC(N)=O.[Cl-] [carbamylcholine]
initial rate of rise of [Ca2+]i in response to reintroduction of calcium ([1]; after carbamylcholine in calcium-free medium, 2 mM calcium reintroduced): 24 ± 8 nM/s

effect on all calcium responses to carbamylcholine [5]: completely blocked
Compound: NCCOB(c1ccccc1)c1ccccc1 [2-aminoethoxydiphenylborane]
acute effect of direct SOCE channel inhibitors on SOCE [1]: immediate reductions in SOCE; also recorded: immediate reduction of SOCE

Compound: C[N+]1(C)[C@@H]2CC(OC(=O)[C@H](CO)c3ccccc3)C[C@H]1[C@@H]1O[C@@H]12 (stereo partly shown) [[^3H]MS, [^3H]N-methylscopolamine]
k−1, rate constant for [3H]MS dissociation [7]: 0.027 ± 0.004 min⁻¹ and 0.021 ± 0.006 min⁻¹ | k−1, rate constant for [3H]MS dissociation, with gallamine [7]: 0.004 ± 0.001 min⁻¹ and 0.005 ± 0.002 min⁻¹

Compound: Cl.O=S(=O)(c1cccc2c(Cl)cccc12)N1CCCNCC1 [ML 9, 1-(5-chloronaphthalenesulfonyl)homo piperazine hydrochloride]
acute effect of direct SOCE channel inhibitors on SOCE [1]: immediate reduction of SOCE
